The results in this text go back to PubChem BioAssay (NCI).

Test systems include NCI-H226 lung; A549 NSCLC; ACHN renal; RPMI-8226 leukemia; SK-MEL-5 melanoma; NCI-H23 lung; SF-539 CNS; MALME-3M melanoma; HT29 colon; HCC-2998 colon.
What all share (test): NCI-60 cell line screen, 48 h

Several values for one entry are separate records, joined by “and”; a condition that tells them apart may be missing. Equal values may be shown once.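 These data come from cells grown in 96-well plates and exposed to compound for 48 hours at five concentrations. GI50 = concentration required for 50% inhibition of growth. TGI is the concentration that stops growth completely.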

Turning to `OCCN(CCO)N=Nc1ccc(-c2nc3ccccc3[nH]2)cc1`, the GI50 is above 100 µM in the assay with NCI-H226 lung; 44.9 µM in the assay with A549 NSCLC; 35.6 µM in the assay on ACHN renal; 21.3 µM with RPMI-8226 leukemia; 20.2 µM in the assay with SK-MEL-5 melanoma. Moreover, the TGI with NCI-H226 lung is above 100 µM; in the assay on A549 NSCLC it was above 100 µM; in the assay on ACHN renal, above 100 µM; in the assay on RPMI-8226 leukemia, 52.4 µM; with SK-MEL-5 melanoma it was 53.4 µM.

For the compound `COc1ccc2[nH]cc(CCNC(C)=O)c2c1`, the TGI is above 100 µM in the assay with NCI-H23 lung; above 100 µM with SF-539 CNS; above 100 µM in the assay on A549 NSCLC; above 100 µM in the assay on ACHN renal; above 100 µM in the assay with MALME-3M melanoma; 57.1 µM with RPMI-8226 leukemia. For the same compound, the TGI in the assay on HT29 colon and with SK-MEL-5 melanoma was above 100 µM in each case.

In the case of `CC(=O)N1CCC2(C=Nc3ccccc32)CC1`, the TGI in the assay with NCI-H23 lung, with HCC-2998 colon, in the assay on SF-539 CNS, in the assay on A549 NSCLC, in the assay with ACHN renal and with MALME-3M melanoma was above 100 µM each time. Also, the TGI in the assay with RPMI-8226 leukemia, in the assay with HT29 colon and in the assay with SK-MEL-5 melanoma was above 100 µM throughout.

In the case of `CCNc1nnc(CSc2nc(-c3ccccc3)c(-c3ccccc3)[nH]2)s1`, the TGI is 35 µM in the assay with NCI-H226 lung; 65.3 µM with NCI-H23 lung; 33.2 µM with SF-539 CNS; 69.5 µM in the assay with A549 NSCLC; 74.6 µM with ACHN renal; 48.4 µM in the assay on MALME-3M melanoma. Besides, the TGI in the assay on RPMI-8226 leukemia was found to be 54.9 µM; in the assay with HT29 colon, 37.9 µM; in the assay on SK-MEL-5 melanoma it was 24.1 µM.

For the compound `CN(C)/[N+]([O-])=N/Oc1cc(Nc2cccc(C(=O)O)c2)c([N+](=O)[O-])cc1[N+](=O)[O-]`, the GI50 with NCI-H226 lung is above 100 µM; with NCI-H23 lung, 69.5 µM; with SF-539 CNS, above 100 µM; in the assay on A549 NSCLC, above 100 µM; in the assay with ACHN renal it was above 100 µM; in the assay with RPMI-8226 leukemia, above 100 µM. Also, the values for the GI50 with HT29 colon and in the assay on SK-MEL-5 melanoma were above 100 µM and 81.4 µM, respectively. Further, the TGI in the assay on NCI-H226 lung, in the assay with NCI-H23 lung, with SF-539 CNS, in the assay on A549 NSCLC, with ACHN renal and in the assay with RPMI-8226 leukemia was above 100 µM each time. The TGI in the assay with HT29 colon and in the assay on SK-MEL-5 melanoma was above 100 µM each time.

As for `COc1cccc(N2C(=O)c3c(c4[nH]c5ccccc5c4c4ccc(C(C)(C)C)cc34)C2=O)c1`, the TGI in the assay on NCI-H226 lung, in the assay with NCI-H23 lung, with HCC-2998 colon, in the assay with SF-539 CNS, with A549 NSCLC and with ACHN renal was above 100 µM each time. The TGI in the assay with MALME-3M melanoma and in the assay on SK-MEL-5 melanoma was above 100 µM throughout.

Regarding `C/C(=N\NC(=S)N1CCCCCC1)c1nccnc1C`, the TGI was above 100 µM with HCC-2998 colon; 1.65 µM in the assay with SF-539 CNS; 30.6 µM with A549 NSCLC; 3.24 µM with ACHN renal; above 100 µM in the assay on MALME-3M melanoma; above 100 µM in the assay with RPMI-8226 leukemia. In addition, the TGI with HT29 colon was above 100 µM; with SK-MEL-5 melanoma it was 12.2 µM.

`CCCCCCCCCCCCCS(=O)(=O)O`: the TGI in the assay with NCI-H226 lung, in the assay with NCI-H23 lung, with HCC-2998 colon, in the assay with SF-539 CNS, in the assay on A549 NSCLC and in the assay with ACHN renal was above 100 µM each time. For the same compound, the TGI in the assay on MALME-3M melanoma, in the assay on HT29 colon and in the assay with SK-MEL-5 melanoma was above 100 µM each time.

Consider `Cc1ccc(NC(=O)c2[nH]c(=S)nc(N)c2-c2ccccc2C)cc1C`, for which the TGI in the assay on NCI-H226 lung, with NCI-H23 lung, with SF-539 CNS, with A549 NSCLC, in the assay with ACHN renal and in the assay on MALME-3M melanoma was above 100 µM each time. In addition, the TGI in the assay with RPMI-8226 leukemia, in the assay on HT29 colon and in the assay with SK-MEL-5 melanoma was above 100 µM each time.

For the compound `CN(C)CCNC(=O)c1ccc(Nc2nc3ccccc3c3occc23)cc1`, the GI50 with NCI-H23 lung was 8.36 µM; in the assay on HCC-2998 colon it was 1.62 µM; in the assay with SF-539 CNS, 1.83 µM; with A549 NSCLC, 4.08 µM; in the assay on ACHN renal, 2.54 µM; with RPMI-8226 leukemia, 2.9 µM. Further, the GI50 with HT29 colon is 6.31 µM; in the assay on SK-MEL-5 melanoma, 3.96 µM. Besides, the TGI is 21.3 µM in the assay with NCI-H23 lung; 3.07 µM in the assay with HCC-2998 colon; 3.7 µM in the assay on SF-539 CNS; 16.1 µM with A549 NSCLC; 7.56 µM in the assay on ACHN renal; 9.05 µM in the assay with RPMI-8226 leukemia. For the same compound, the TGI in the assay on HT29 colon was above 100 µM; with SK-MEL-5 melanoma, 14 µM.

For the compound `CN(N=O)C(=O)Nc1c[nH]c(=O)[nH]c1=O`, the TGI with NCI-H226 lung, with NCI-H23 lung, in the assay with HCC-2998 colon, in the assay on SF-539 CNS, in the assay with A549 NSCLC and in the assay with ACHN renal was above 100 µM throughout. The TGI with MALME-3M melanoma, in the assay with HT29 colon and in the assay on SK-MEL-5 melanoma was above 100 µM each time.

On to `Cc1ccc(C)c(NC(=O)C(=O)C2C(=O)C3=C(CC2(C)C)Nc2ccccc2S3)c1` (stereo unspecified), for which the TGI in the assay on NCI-H226 lung, with NCI-H23 lung, in the assay on HCC-2998 colon, with SF-539 CNS, in the assay on A549 NSCLC and with ACHN renal was above 100 µM in each case. In addition, the TGI in the assay on HT29 colon and in the assay with SK-MEL-5 melanoma was above 100 µM throughout.

As to `CC(Cn1c2c3ccccc3ccc2c2oc(=O)c3ccccc3c21)N(C)C` (stereo unspecified), the TGI in the assay on NCI-H23 lung, in the assay with SF-539 CNS, in the assay on A549 NSCLC, in the assay with ACHN renal, in the assay with MALME-3M melanoma and in the assay on RPMI-8226 leukemia was above 100 µM in each case. The compound also returned a TGI in the assay on HT29 colon above 100 µM.

With `O=C(CCN1CCN(c2cccc(Cl)c2)CC1)N1CCc2c([nH]c3ccccc23)C1c1cccnc1` (stereo unspecified), the TGI in the assay with NCI-H226 lung is 49.9 µM; with NCI-H23 lung, 28 µM; in the assay with HCC-2998 colon, 4.04 µM and 8.05 µM; in the assay with SF-539 CNS, 31.2 µM; in the assay with A549 NSCLC, 19 µM; in the assay on ACHN renal it was 21.6 µM. In addition, the TGI in the assay on MALME-3M melanoma was found to be 36.8 µM; with HT29 colon, 16.4 µM; in the assay on SK-MEL-5 melanoma it was 21.9 µM. Further, the GI50 in the assay with NCI-H23 lung is 11.2 µM; in the assay on HCC-2998 colon it was 2.91 µM; in the assay with ACHN renal, 6.34 µM; with MALME-3M melanoma it was 14.9 µM; in the assay with HT29 colon it was 4.13 µM; in the assay with SK-MEL-5 melanoma it was 7.72 µM.
